Data from patent publication US9499495B2, “Quinazolines and azaquinazolines as dual inhibitors of RAS/RAF/MEK/ERK and PI3K/AKT/PTEN/mTOR pathways” (Asana Biosciences, LLC, priority 2013, dated 2016).

Assays:
[1] = system: pERK in A375 cells; experiment: In Cell Western (ICW) assay, pERK in A375 cells; type: cell-based; conditions: Homo sapiens, A-375, 3 h treatment
Procedure: Cell lines A375, A2058 and RKO obtained from the ATCC as provided above, were grown, and after attaining ˜80% confluency were trypsinized, centrifuged and resuspended in fresh media. The cells were seeded at the specified density (20,000 to 50,000) in a 96-well format black-well clear bottom plate (Corning) and incubated overnight at 37° C. in a 5% CO2 incubator. The next day, compound dilutions of test compounds were prepared in 100% DMSO followed by dilutions in respective media. Treatment of test compounds was performed for 3 h at 37° C. in 5% CO2 incubator. Following 3 h drug treatment, the conditional media was discarded and the cells were washed once with cPBS (PBS containing 0.1% magnesium chloride hexahydrate and 0.1% anhydrous calcium chloride) and fixed with 4% paraformaldehyde in cPBS for 1 h at rt. After fixing, the cells were given three washes using cPBST (cPBS containing 0.1% Triton™ X-100 reagent) and then blocked using blocking solution (5% skimmed milk powder or 5% BSA prepared in cPBST) for 2 h at rt with shaking at 300 rpm. The cells were again washed thrice with cPBST and incubated with primary antibody phospho-p44/42 MAPK(Erk1/2)(Thr202/204) antibody (Cell Signaling, Catalog # 9101L), phospho S6 ribosomal protein (Cell Signaling, Catalog #4858L), phospho AKT (Thr 308) (Cell Signaling, Catalog #9275) or phospho AKT (Ser 473) (Cell Signaling, Catalog #4060L) in specified dilutions (1:500-1:2500), prepared in respective blocking solutions, in a racker overnight at 4° C. The next day, the cells were washed with 1× Delfia® wash buffer (4×1 wash) and incubated with secondary antibody (Delfia®-Eu-N1 labeled anti-rabbit antibody; PerkinElmer, Catalog #AD0105; dilutions: 1:2000 to 1:6000 in Delfia® assay buffer (PerkinElmer, Catalog #1244-111)) for 2 h at rt in the dark at 300 rpm. The cells were then given four washes with 1× Delfia® wash buffer and incubated with Wallac Delfia® Enhancement solution (100 μL; PerkinElmer, Catalog #1244-105) for 20 min at rt in the dark at 300 rpm. The fluorescence emission was then read at 615 nm with an excitation wavelength of 340 nm using a Victor V5 Fluorometer (Perkin Elmer, US). The cells were then washed once with 1×cPBS and incubated with 100 μL of 0.5 mg/mL of Hoechst 33258 dye prepared in cPBS and read at 460 nm with 355 nm excitation, thereby evaluating the correction factor.
The % inhibition for the test compounds of formula (I) (new chemical entities (NCEs)) was calculated keeping DMSO control as 0% and the IC50 values were determined using sigmoidal dose response curve fit in GraphPad Prism® v5 software.

[2] = system: A375 cells; experiment: XTT assay for cell viability, A375 cells; type: cell-based; conditions: Homo sapiens, A-375, 72 h
Procedure: Cell lines (A375 ATCC No. CRL-1619, A2058 ATCC No. CRL-11147 and RKO ATCC No. CRL-2577, American Type Culture Collection (ATCC), Manassas Va.) once attaining ˜80% confluency were trypsinized, centrifuged and resuspended in fresh media. Cells (1000-2000/per well) were seeded in 96-well plate and incubated over-night at 37° C. in a 5% CO2 incubator. Compound dilutions were prepared in 100% DMSO followed by dilutions in the respective media. The cells were treated with NCEs for 72 h at 37° C. in 5% CO2 incubator. After 72 h, freshly prepared XTT (1 mg/ml)/PMS (25 μM) solution was added, incubated for 2 to 3 h at 37° C. and the absorbance was measured at 450 nm using an ELISA plate reader. Keeping DMSO control as 100%, the effect of the compound to inhibit the cell proliferation was calculated and the GI50 values were determined using sigmoidal dose response curve fit in GraphPad Prism® v5 software.

[3] = target: T1, B-RAFV600E (Homo sapiens, UniProt P15056, V600E); experiment: B-RAFV600E radiometric assay; type: biochemical; conditions: read-out: Kinase assay B-Raf
T1 construct: purchased Millipore, USA 14-557
T1 sequence (P15056 416-766 V600E limits assumed): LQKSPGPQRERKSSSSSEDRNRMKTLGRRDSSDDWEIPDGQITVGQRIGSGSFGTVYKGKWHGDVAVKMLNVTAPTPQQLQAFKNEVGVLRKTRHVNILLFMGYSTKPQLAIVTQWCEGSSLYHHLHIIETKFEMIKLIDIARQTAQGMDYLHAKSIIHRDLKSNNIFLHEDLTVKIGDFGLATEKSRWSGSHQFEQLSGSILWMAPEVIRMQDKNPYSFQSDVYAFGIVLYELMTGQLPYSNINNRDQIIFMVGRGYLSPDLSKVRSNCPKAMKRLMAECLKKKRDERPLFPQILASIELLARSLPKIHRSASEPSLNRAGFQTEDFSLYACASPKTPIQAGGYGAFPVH
Procedure: Compound inhibition for B-RAFV600E was determined through radiometric assay using a BRAF enzyme (Catalog No. 14-557, Millipore, USA) and MEK-K97M protein as a substrate (Catalog No. 0785-0000-1, ProqQinase GmbH, Germany). The B-RAF kinase catalyzes the phosphorylation of MEK protein in the presence of gamma ATP (PLC-101, Jonaki, CCMB, Hyderabad), cold ATP and Mg^2+.
The phosphorylated protein product is detected by the scintillation counter Topcount® machine (Perkin Elmer). This assay has been adapted from the method previously reported by Yeh et al. (2007, Clinical Cancer Research; 13, 1576-1583). The assay measures the B-RAF mediated transfer of 32P from the gamma position of radiolabeled ATP onto MEK1-KD. The labeled phosphorylated protein was measured in MicroBeta® Trilux Counter (Perkin Elmer). The assay was validated with reference compounds RAF1 Kinase Inhibitor I and ZM 336372 inhibitor which are reported to be inhibitors of B-RAF enzyme (Lackey, 2000, Medicinal Chemistry Letters; 10(3):223-226; Kupcho, “Fluorescent High throughput kinase cascade assays for inhibitor characterization, RAF-MEK-ERK pathway, www.invitrogen.com, and Hall-Jackson, 1999, Chemical Biology; 6(8):559-568). B-RAF enzyme mixture (13 μL) was added to compound wells containing 2 μL of the NCE in 1% DMSO and incubated for 45 min at rt on a shaking incubator at 300 rpm. MEK-K97M (0.5 μg) and cold ATP to a final concentration of 5 μM, and hot ATP 0.1 μCi in a volume of 10 μL was added to each well and incubated for 2 h at rt on a shaking incubator at 300 rpm. The reaction was stopped by addition of […] (13 μL) containing ATP (1 mM: 495 μL 1N HCl and 5 μL 100 mM ATP). Aliquot (30 μL) was then transferred to the center of a 2 cm×2 cm P81 paper. P81 paper was washed 8×5 min each with ortho-phosphoric acid (0.5%). P81 papers are washed twice with acetone for […] Assay squares were allowed to dry for […] at 37° C. P81 paper are transferred to Optiplate™ (Perkin Elmer) and counted in a Topcount® counter (Perkin Elmer). Data was plotted against the compound concentration to generate dose-response curves and IC50 values were determined using a sigmoidal dose response curve fit GraphPad Prism® v5 software.

[4] = target: T2, mTOR kinase (Homo sapiens, UniProt P42345); experiment: mTOR kinase TR-FRET assay; type: biochemical
T2 construct: purchased Millipore, US
T2 sequence (P42345 1362-2549 limits assumed): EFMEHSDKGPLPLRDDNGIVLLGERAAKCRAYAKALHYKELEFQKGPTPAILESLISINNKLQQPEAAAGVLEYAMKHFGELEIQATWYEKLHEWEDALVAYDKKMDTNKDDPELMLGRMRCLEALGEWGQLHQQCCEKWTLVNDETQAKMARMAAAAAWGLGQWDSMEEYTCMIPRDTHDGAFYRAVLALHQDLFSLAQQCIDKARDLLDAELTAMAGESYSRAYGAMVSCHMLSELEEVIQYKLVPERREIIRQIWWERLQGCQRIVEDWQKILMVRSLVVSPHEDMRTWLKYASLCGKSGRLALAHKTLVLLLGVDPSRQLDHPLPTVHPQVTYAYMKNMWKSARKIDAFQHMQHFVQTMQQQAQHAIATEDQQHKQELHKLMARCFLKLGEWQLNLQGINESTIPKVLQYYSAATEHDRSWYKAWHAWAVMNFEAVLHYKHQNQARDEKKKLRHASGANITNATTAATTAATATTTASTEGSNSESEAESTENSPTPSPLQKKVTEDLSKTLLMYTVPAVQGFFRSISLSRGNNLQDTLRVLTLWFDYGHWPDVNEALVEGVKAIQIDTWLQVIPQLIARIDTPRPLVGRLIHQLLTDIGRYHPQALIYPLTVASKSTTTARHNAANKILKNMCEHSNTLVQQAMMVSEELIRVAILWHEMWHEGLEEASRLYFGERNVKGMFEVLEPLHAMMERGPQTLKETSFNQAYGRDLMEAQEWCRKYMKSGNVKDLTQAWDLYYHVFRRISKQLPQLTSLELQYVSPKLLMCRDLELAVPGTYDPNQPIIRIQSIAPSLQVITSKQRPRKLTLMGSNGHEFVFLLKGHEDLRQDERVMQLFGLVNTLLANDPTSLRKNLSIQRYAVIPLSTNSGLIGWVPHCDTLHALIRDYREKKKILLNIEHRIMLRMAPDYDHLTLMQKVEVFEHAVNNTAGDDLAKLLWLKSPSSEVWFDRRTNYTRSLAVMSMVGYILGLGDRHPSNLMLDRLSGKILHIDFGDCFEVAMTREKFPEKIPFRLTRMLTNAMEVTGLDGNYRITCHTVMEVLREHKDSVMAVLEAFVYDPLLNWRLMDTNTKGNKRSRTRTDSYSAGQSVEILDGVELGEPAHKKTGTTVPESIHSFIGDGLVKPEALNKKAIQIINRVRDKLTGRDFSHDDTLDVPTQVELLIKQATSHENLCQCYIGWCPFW
Procedure: Compound inhibition for mTOR kinase was determined by homogeneous TR-FRET assay using ULight-p70 S6K (Thr 389) peptide as substrate. mTOR enzyme (Millipore, US; […]) was used in the assay. The reaction buffer was HEPES (50 mM, pH 7.5), EGTA (1 mM), and MnCl2 (3 mM). Test compound was pre-incubated with mTOR for 30 min followed by 50 nM ULight-p70 S6K (Thr 389) peptide along with ATP (20 μM).
After incubating the reaction mixture for 30 min, Eu-labeled anti-phospho-substrate antibody (1 nM, Perkin Elmer, USA) was added. Fluorescence emission at […] was measured upon excitation at 340 nm. The compound dilution was carried out in 100% DMSO followed by a buffer dilution. The kinase reaction was incubated for 1 h at rt followed by the addition of substrate-ATP mix and incubated at rt for 1 h. The reaction was terminated by the addition of EDTA followed by the addition of detection mix. IC50 values were determined using a sigmoidal dose response curve fit, GraphPad Prism® v5 software.

| Structure (SMILES) | IC50 [1] [nM] | IC50 [2] [nM] | IC50 [3] [nM] | IC50 [4] [nM] |
| --- | --- | --- | --- | --- |
| CCCS(=O)(=O)Nc1cccc(-c2cc(OC)c3nc(-n4c(C(F)F)nc5ccccc54)nc(N4CCOCC4)c3c2)c1F [Example 9, N-(3-(2-(2-(difluoromethyl)-1H-benzo[d]imidazol-1-yl)-8-methoxy-4-morpholinoquinazolin-6-yl)-2-fluorophenyl)propane-1-sulfonamide] | 100 to 1000 | 100 to 1000 | 1 to 100 | 100 to 1000 |
| COc1cc(-c2cccc(NS(=O)(=O)c3c(F)cccc3F)c2F)cc2c(N3CCOCC3)nc(-c3cnc(N)nc3)nc12 [Example 13, N-(3-(2-(2-aminopyrimidin-5-yl)-8-methoxy-4-morpholinoquinazolin-6-yl)-2-fluorophenyl)-2,6-difluorobenzenesulfonamide] | 100 to 1000 | 100 to 1000 | 1 to 100 | 100 to 1000 |
| CCCS(=O)(=O)Nc1cccc(-c2cc(OC)c3nc(-c4ccc(NC(=O)NC)cc4)nc(N4CCOCC4)c3c2)c1F [Example 14, N-(2-fluoro-3-(8-methoxy-2-(4-(3-methylureido)phenyl)-4-morpholinoquinazolin-6-yl)phenyl)propane-1-sulfonamide] | 100 to 1000 | 100 to 1000 | 100 to 1000 | 1 to 100 |
| CCCS(=O)(=O)Nc1cccc(-c2cc(OC)c3nc(-c4cnc(N)nc4)nc(N4CCOCC4)c3c2)c1F [Example 15, N-(3-(2-(2-aminopyrimidin-5-yl)-8-methoxy-4-morpholinoquinazolin-6-yl)-2-fluorophenyl)propane-1-sulfonamide] | 100 to 1000 | 100 to 1000 | 100 to 1000 | 100 to 1000 |
| CCCS(=O)(=O)Nc1cccc(-c2cc(OC)c3nc(-c4ccc(N)nc4)nc(N4CCOCC4)c3c2)c1F [Example 17, N-(3-(2-(6-aminopyridin-3-yl)-8-methoxy-4-morpholinoquinazolin-6-yl)-2-fluorophenyl)propane-1-sulfonamide] | 100 to 1000 | 100 to 1000 | 1 to 100 | 1 to 100 |
| CCCS(=O)(=O)Nc1cccc(-c2cc(OC)c3nc(-c4ccc(N)nc4F)nc(N4CCOCC4)c3c2)c1F [Example 18, N-(3-(2-(6-amino-2-fluoropyridin-3-yl)-8-methoxy-4-morpholinoquinazolin-6-yl)-2-fluorophenyl)propane-1-sulfonamide] | 100 to 1000 | 100 to 1000 | 100 to 1000 | 100 to 1000 |
| COc1cc(-c2cccc(NS(=O)(=O)c3c(F)cccc3F)c2F)cc2c(N3CCOCC3)nc(-c3ccc(N)nc3)nc12 [Example 19, N-(3-(2-(6-aminopyridin-3-yl)-8-methoxy-4-morpholinoquinazoIin-6-yl)-2-fluorophenyl)-2,6-difluorobenzenesulfonamide] | 100 to 1000 | 100 to 1000 | 1 to 100 | 100 to 1000 |
| COc1cc(-c2cccc(NS(=O)(=O)CC(C)C)c2F)cc2c(N3CCOCC3)nc(-c3cnc(N)nc3)nc12 [Example 20, N-(3-(2-(2-aminopyrimidin-5-yl)-8-methoxy-4-morpholinoquinazolin-6-yl)-2-fluorophenyl)-2-methylpropane-1-sulfonamide] | 100 to 1000 | 100 to 1000 | 1 to 100 | 100 to 1000 |
| CCS(=O)(=O)Nc1cccc(-c2cc(OC)c3nc(-c4cnc(N)nc4)nc(N4CCOCC4)c3c2)c1F [Example 21, N-(3-(2-(2-aminopyrimidin-5-yl)-8-methoxy-4-morpholinoquinazolin-6-yl)-2-fluorophenyl) \ethanesulfonamide] | 100 to 1000 | 1000 to 10000 | 100 to 1000 | 100 to 1000 |
| COc1cc(-c2cccc(NS(=O)(=O)c3cc(F)ccc3F)c2F)cc2c(N3CCOCC3)nc(-c3cnc(N)nc3)nc12 [Example 22, N-(3-(2-(2-aminopyrimidin-5-yl)-8-methoxy-4-morpholinoquinazolin-6-yl)-2-fluorophenyl)-2,5-difluorobenzenesulfonamide] | 1 to 100 | 100 to 1000 | 1 to 100 | 100 to 1000 |
| COc1cc(-c2cccc(NS(=O)(=O)CCCF)c2F)cc2c(N3CCOCC3)nc(-c3cnc(N)nc3)nc12 [Example 27, N-(3-(2-(2-aminopyrimidin-5-yl)-8-methoxy-4-morpholinoquinazolin-6-yl)-2-fluorophenyl)-3-fluoropropane-1-sulfonamide] | 1 to 100 | 100 to 1000 | 1 to 100 | 100 to 1000 |
| COc1cc(-c2cccc(NS(=O)(=O)c3cc(F)ccc3F)c2F)cc2c(N3CCOCC3)nc(-c3ccc(N)nc3)nc12 [Example 28, N-(3-(2-(6-aminopyridin-3-yl)-8-methoxy-4-morpholinoquinazolin-6-yl)-2-fluorophenyl)-2,5-difluorobenzenesulfonamide] | 1 to 100 | 100 to 1000 | 1 to 100 | 100 to 1000 |
